From patent US12721820B2, “Method of manufacturing peptide nanoparticles” (DuPage Medical Technology, Inc., priority 2020, dated 2026)
Residues, ends and D or L forms follow the SMILES beside them. *: point of attachment. Myristoyl = CCCCCCCCCCCCCC(=O)*

Assays:
[1] = Dissolution and storage stability of lyophilized powder; format: physicochemical
Experimental: The M3mP6 HLPN thus generated achieves a high M3mP6 peptide loading reaching >80% of total nanoparticle (mol/mol) (when such percentage of peptide was incorporated into during the process) and a high peptide concentration of >10 mM in injectable suspension. As analyzed by dynamic light scattering (DLS), the vast majority (99.8-100%) of these lipid-stabilized, PEG-coated M3mP6 HLPN have a particle size ranging between 6 nm to 25 nm (in different preparations) with occasional appearance of very small populations (0-0.2%) with larger diameters (~50-500 nm) (FIGS. 5A-5F).

[2] = tested on: tail bleeding time in mice; assay: Tail bleeding time; format: in vivo; conditions: same concentrations that inhibit occlusive thrombosis
[3] = Rat 5-day infusion pharmacokinetic study; conditions: for AUC(0-t) / Tmax / clearance: plasma; for Css: steady-state plasma concentration during continuous IV infusion; for λz: terminal elimination rate constant
in vivo = conditions: male, rat, iv
[4] = tested on: laser-induced cremaster arteriolar thrombosis; assay: Laser-induced cremaster arteriolar thrombosis model; format: in vivo, mice; conditions: laser-induced mouse cremaster arterial thrombosis model; for intravascular coagulation (fibrin clot formation / fibrin deposition): site of vascular injury
Description: This example illustrates the comparative effect of M3mP6 HLPN (prepared substantially as described in Example 1) and cangrelor on intracvascular coagulation using laser-induced cremaster arteriolar thrombosis model in mice.
It was recently shown that outside-in signaling plays an important role in not only platelet thrombus formation but also intravascular coagulation under flow shear, an important aspect of thrombosis. […] Thus, we tested the effect of M3mP6 HLPN generated by vortex-mixing-lyophilization on platelet thrombus formation and intravascular coagulation in comparison with cangrelor using the laser-induced cremaster arterial thrombosis model.

Q: For `CCCCCCCCCCCCCC(=O)N[C@@H](Cc1ccccc1)C(=O)N[C@@H](CCC(=O)O)C(=O)N[C@@H](CCC(=O)O)C(=O)N[C@@H](CCC(=O)O)C(=O)N[C@@H](CCCNC(=N)N)C(=O)N[C@@H](CC(C)C)C(=O)O` [M3mP6, Myr-FEEERL (SEQ ID NO: 8)] (Myristoyl-FEEERL-OH; C-terminus assumed), which storage stability ([1]; lyophilized powder at room temperature (22° C.)) is on record?
A: at least 2 weeks

Q: And the “storage stability (similar DLS profile and pharmacological effect)” value ([1]; lyophilized powder stored at −20° C.)?
A: more than 18 months

Q: And the tail bleeding time [2]?
A: without affecting bleeding

Q: What about the Vd ([3]; female, in vivo, iv) of the same compound?
A: 0.2 L/kg

Q: What about the AUC(0-t) ([3]; female, intravenous) of the same compound?
A: 17600 µg·h/mL

Q: And the Tmax ([3]; female, intravenous)?
A: 4.8 min

Q: And the clearance ([3]; female, iv, CL CLAUC, clearance estimated from AUC0-∞)?
A: 0.7 mL/min/kg

Q: What about the clearance ([3]; female, iv, CL CLcss, clearance estimated from Css) of the same compound?
A: 0.8 mL/min/kg

Q: And the Css ([3]; female)?
A: 131.117 µg/mL

Q: And the t1/2-λz ([3]; female, terminal elimination half-life)?
A: 186 min

Q: And the λz ([3]; female)?
A: 0.223 h⁻¹

Q: And the Vλz ([3]; male, distribution volume)?
A: 0.46 L/kg

Q: And the AUC(0-t) ([3]; male, intravenous)?
A: 9490 µg·h/mL

Q: What about the Tmax ([3]; male, intravenous) of the same compound?
A: 4.8 min

Q: What about the clearance ([3]; male, intravenous, CL CLAUC, clearance estimated from AUC0-∞) of the same compound?
A: 1.4 mL/min/kg

Q: What about the clearance ([3]; male, iv, CL CLcss, clearance estimated from Css) of the same compound?
A: 1.3 mL/min/kg

Q: And the Css ([3]; male)?
A: 77.621 µg/mL

Q: And the λz ([3]; male)?
A: 0.177 h⁻¹

Q: What about the half-life (in vivo) of the same compound?
A: 234 min

Q: Which platelet thrombus formation [4] does the source give for `CSCCNc1nc(SCCC(F)(F)F)nc2c1ncn2[C@@H]1O[C@H](COP(=O)(O)OP(=O)(O)C(Cl)(Cl)P(=O)(O)O)[C@@H](O)[C@H]1O` [cangrelor] here?
A: similarly potent effects

Q: And the “intravascular coagulation (fibrin clot formation / fibrin deposition)” value [4]?
A: moderate effect

Q: And the “intravascular coagulation (fibrin clot formation / fibrin deposition)” value ([4]; listed as Cangrelor)?
A: only partially inhibited

Q: And the platelet thrombus formation ([4]; listed as Cangrelor)?
A: similarly inhibited
